Assay: Solubility (aqueous / gastrointestinal fluids)
Type: physicochemical

CCOC(=O)C(Cc1ccc(NC(=O)c2c(Cl)cccc2Cl)cc1)NC(=O)c1c(C)cccc1Cl (stereo not shown) [Compound II]
solubility in gastrointestinal fluids: practically insoluble

— patent US6350786B1, “Stable complexes of poorly soluble compounds in ionic polymers” (Hoffmann-La Roche Inc., priority 1998, dated 2002)
